# Reference: patent US9550782B2, “Compounds and methods for treating diabetes” (Medivation Technologies, Inc., priority 2011, dated 2017)
# “And” between values parts separate entries of the source, which are not always exact repeats. Equal values may be shown once. Read-outs that look alike come from different tables or passages of the source.
# Tests used:
# [1] = molecular target: T1, rat adrenergic α1B receptor (Rattus norvegicus, UniProt P15823); experiment: Radioligand binding, adrenergic α1B ([3H]Prazosin); design: species or system Wistar Rat
# T1 construct: rat adrenergic α1B receptor obtained from Wistar Rat liver; from tissue; host or cells: Wistar rat liver
# T1 sequence (P15823 1-515): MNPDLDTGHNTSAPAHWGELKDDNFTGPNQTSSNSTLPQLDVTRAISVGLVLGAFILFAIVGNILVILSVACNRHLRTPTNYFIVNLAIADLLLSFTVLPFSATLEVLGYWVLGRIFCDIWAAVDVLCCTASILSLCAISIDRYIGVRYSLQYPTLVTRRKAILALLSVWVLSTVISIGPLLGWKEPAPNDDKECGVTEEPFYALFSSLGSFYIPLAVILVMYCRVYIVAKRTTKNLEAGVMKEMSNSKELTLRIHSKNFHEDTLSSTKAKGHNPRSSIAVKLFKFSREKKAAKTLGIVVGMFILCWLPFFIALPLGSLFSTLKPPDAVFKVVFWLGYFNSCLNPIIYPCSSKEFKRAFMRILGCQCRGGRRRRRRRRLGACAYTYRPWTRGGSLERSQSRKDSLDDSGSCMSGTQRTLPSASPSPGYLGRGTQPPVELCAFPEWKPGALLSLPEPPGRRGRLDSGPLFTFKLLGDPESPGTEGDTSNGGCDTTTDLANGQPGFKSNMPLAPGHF
# Procedure: To evaluate in radioligand binding assays the activity of compounds of the invention, rat adrenergic α1B receptor obtained from Wistar Rat liver (Garcia-S'ainz, J. et al, Biochem. Biophys. Res. Commun. 186:760, 1992; Michel, A. et al, Br. J. Pharmacol. 98:883, 1989) in a modified Tris-HCl buffer (50 mM Tris-HCl buffer, pH 7.4, 0.5 mM EDTA) was used. Compounds of the invention were incubated with 0.25 nM [^3H]Prazosin for 60 min at 25° C. Non-specific binding was estimated in the presence of 10 μM phentolamine. Receptor proteins were filtered and washed, the filters were then counted to determine [^3H]Prazosin specifically bound. […] Compounds of the invention were tested in this biochemical assay and percent inhibition of specific binding was determined. Biochemical assay results are presented as the percent inhibition of specific binding in Table B1.
# [2] = molecular target: T2, human recombinant adrenergic α2A receptor (Homo sapiens, UniProt P08913); experiment: Radioligand binding, adrenergic α2A ([3H]MK-912); conditions: [3H]MK-912
# T2 construct: expressed in transfected cells; host or cells: insect Sf9 cells
# T2 sequence (P08913 1-465): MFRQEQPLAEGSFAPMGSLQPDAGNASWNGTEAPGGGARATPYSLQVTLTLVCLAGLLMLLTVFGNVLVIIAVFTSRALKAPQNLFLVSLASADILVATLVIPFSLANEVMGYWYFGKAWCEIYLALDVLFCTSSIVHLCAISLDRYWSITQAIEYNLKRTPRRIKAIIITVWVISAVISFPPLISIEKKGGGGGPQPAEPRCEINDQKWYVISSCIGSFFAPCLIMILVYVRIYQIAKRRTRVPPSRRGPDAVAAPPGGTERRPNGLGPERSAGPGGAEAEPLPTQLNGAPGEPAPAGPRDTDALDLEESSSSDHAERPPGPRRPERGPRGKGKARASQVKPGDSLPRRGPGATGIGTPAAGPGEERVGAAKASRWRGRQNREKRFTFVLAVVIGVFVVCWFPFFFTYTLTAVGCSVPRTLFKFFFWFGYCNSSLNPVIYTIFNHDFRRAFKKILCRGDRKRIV
# Procedure: To evaluate in radioligand binding assays the activity of compounds of the invention, human recombinant adrenergic α2A receptor expressed in insect Sf9 cells (Uhlen, S. et al, J. Pharmacol. Exp. Ther. 271:1558, 1994) in a modified Tris-HCl buffer (50 mM Tris-HCl, pH 7.4, 12.5 mM MgCl2, 2 mM EDTA) was used. Compounds of invention were incubated with 1 nM [^3H]MK-912 for 60 min at 25° C. MK912 is (2S-trans)-1,3,4,5′,6,6′,7,12b-octahydro-1′,3′-dimethyl-spiro[2H-benzofuro[2,3-a]quinolizine-2,4′(1′H)-pyrimidin]-2′(3′H)-one hydrochloride. Non-specific binding was estimated in the presence of 10 μM WB-4101 (2-(2,6-Dimethoxyphenoxyethyl)aminomethyl-1,4-benzodioxane hydrochloride). Receptor proteins were filtered and washed, the filters were then counted to determine [^3H]MK-912 specifically bound. […] Compounds of the invention were tested in this biochemical assay and percent inhibition of specific binding was determined. Biochemical assay results are presented as the percent inhibition of specific binding in Table B1.
# [3] = molecular target: T3, human recombinant adrenergic α2B receptor (Homo sapiens, UniProt P18089); experiment: Radioligand binding, adrenergic α2B ([3H]Rauwolscine)
# T3 construct: expressed in transfected cells; host or cells: CHO-K1
# T3 sequence (P18089 1-450): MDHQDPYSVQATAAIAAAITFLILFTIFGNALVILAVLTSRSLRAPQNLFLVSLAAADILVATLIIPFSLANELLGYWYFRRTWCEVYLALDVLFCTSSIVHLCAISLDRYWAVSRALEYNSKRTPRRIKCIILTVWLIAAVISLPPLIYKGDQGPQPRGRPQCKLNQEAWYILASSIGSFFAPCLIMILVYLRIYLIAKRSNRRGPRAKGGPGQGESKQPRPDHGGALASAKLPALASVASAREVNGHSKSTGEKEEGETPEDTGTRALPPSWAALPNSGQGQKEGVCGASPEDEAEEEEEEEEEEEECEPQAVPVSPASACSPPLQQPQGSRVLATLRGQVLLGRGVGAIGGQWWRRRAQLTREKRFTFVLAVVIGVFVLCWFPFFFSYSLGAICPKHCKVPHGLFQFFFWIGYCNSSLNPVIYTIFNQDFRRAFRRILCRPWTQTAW
# Procedure: To evaluate in radioligand binding assays the activity of compounds of the invention, human recombinant adrenergic α2B receptor expressed in Chinese hamster ovary (CHO) K1 cells (Uhlen, S. et al, Eur. J. Pharmacol. 343(1):93, 1998) in a modified Tris-HCl buffer (50 mM Tris-HCl, pH 7.4, 12.5 mM MgCl2, 1 mM EDTA, 0.2% BSA) was used. Compounds of the invention were incubated with 2.5 nM [3H]Rauwolscine for 60 min at 25° C. Non-specific binding was estimated in the presence of 10 μM Prazosin. Receptor proteins were filtered and washed, the filters were then counted to determine [3H]Rauwolscine specifically bound. […] Compounds of the invention were tested in this biochemical assay and percent inhibition of specific binding was determined. Biochemical assay results are presented as the percent inhibition of specific binding in Table B1.
# [4] = read-out: Percentage inhibition of ligand binding, Adrenergic α1B (0.1 μM), compound at 0.1 μM, repeat datapoints each shown
# [5] = compound at 0.1 μM, repeat datapoints each shown, 0.1 µM
# [6] = 0.1 μM compound, read-out: Percentage inhibition of ligand binding, Adrenergic α2A
# [7] = read-out: Percentage inhibition of ligand binding, Adrenergic α2A (0.1 μM), compound at 0.1 μM, repeat datapoints each shown
smiles,measurement,setting,value
"Cc1ccc2c(c1)c1c(n2CC(N=[N+]=[N-])c2ccncc2)CCN(C)C1 (racemic) [V-1, 5-(2-azido-2-(pyridin-4-yl)ethyl)-2,3,4,5-tetrahydro-2,8-dimethyl-1H-pyrido[4,3-b]indole]",inhibition at 0.1 µM,[1]; [4],15%
"CCC(O)(Cn1c2c(c3cc(C)ccc31)CN(C)CC2)c1ccc(F)cc1 (single isomer, unassigned) [34a]","Percentage inhibition of ligand binding, Adrenergic α2A (0.1 μM)",[2]; [5],29%
same,"Percentage inhibition of ligand binding, Adrenergic α1B (0.1 μM)",[1]; [5],11%
"Cc1ccc2c(c1)c1c(n2C(C)C(O)c2ccncc2)CCN(C)C1 (single isomer, unassigned) [127a]","Percentage inhibition of ligand binding, Adrenergic α2B",[3]; 0.03 μM compound,43%
same,"Percentage inhibition of ligand binding, Adrenergic α2B",[3]; 0.1 μM compound,74%
"Cc1ccc2c(c1)c1c(n2CC(O)c2ccncc2)CCN2CCCC12 (single isomer, unassigned) [129a]","Percentage inhibition of ligand binding, Adrenergic α2A","[2]; 0.1 μM compound, 0.1 µM",46%
same,"Percentage inhibition of ligand binding, Adrenergic α1B","[1]; 0.1 μM compound, 0.1 µM",73%
"Cc1ccc2c(c1)c1c(n2CC(O)c2ccncc2)CCN2CCCC12 (single isomer, unassigned) [129b]","Percentage inhibition of ligand binding, Adrenergic α2A","[2]; 0.1 μM compound, 0.1 µM",55%
same,"Percentage inhibition of ligand binding, Adrenergic α1B","[1]; 0.1 μM compound, 0.1 µM",69%
"Cc1ccc2c(c1)c1c(n2CC(O)c2ccncc2)CCN2CCCC12 (single isomer, unassigned) [129c]",inhibition at 0.03 µM,"[2]; 0.03 μM compound, read-out: Percentage inhibition of ligand binding, Adrenergic α2A",14%
same,inhibition at 0.1 µM,[2]; [6],29%
"Cc1ccc2c(c1)c1c(n2CC(OC(=O)C(C)(C)C)c2ccncc2)CCN(C)C1 (single isomer, unassigned) [130b]","Percentage inhibition of ligand binding, Adrenergic α2A","[2]; 0.03 μM compound, 0.03 µM",13%
same,"Percentage inhibition of ligand binding, Adrenergic α2A","[2]; 0.1 μM compound, 0.1 µM",31%
same,"Percentage inhibition of ligand binding, Adrenergic α1B","[1]; 0.03 μM compound, 0.03 µM",2%
same,"Percentage inhibition of ligand binding, Adrenergic α1B","[1]; 0.1 μM compound, 0.1 µM",8% and 11%
"CN1CCc2c(c3cc(Cl)ccc3n2CC(C)(O)c2ccc(C(F)(F)F)nc2)C1 (single isomer, unassigned) [143a]","Percentage inhibition of ligand binding, Adrenergic α1B","[1]; 0.1 μM compound, 0.1 µM",43%
"Cc1ccc2c(c1)c1c(n2CC(c2ccncc2)N(C)C)CCN(C)C1 (single isomer, unassigned) [150b]","Percentage inhibition of ligand binding, Adrenergic α2A","[2]; 0.1 μM compound, 0.1 µM",5%
same,"Percentage inhibition of ligand binding, Adrenergic α1B","[1]; 0.1 μM compound, 0.1 µM",7%
"Cc1ccc2c(c1)c1c(n2CC(c2ccncc2)N2CCCC2)CCN(C)C1 (single isomer, unassigned) [152a]","Percentage inhibition of ligand binding, Adrenergic α2A",[2]; 0.1 μM compound,17%
"Cc1ccc2c(c1)c1c(n2CC(c2ccncc2)N2CCCC2)CCN(C)C1 (single isomer, unassigned) [152b]","Percentage inhibition of ligand binding, Adrenergic α1B",[1]; 0.1 μM compound,7%
"Cc1ccc2c(c1)c1c(n2CC(N)c2ccncc2)CC2CCC1N2C (single isomer, unassigned) [155a]","Percentage inhibition of ligand binding, Adrenergic α2A","[2]; 0.1 μM compound, 0.1 µM",−1%
"CN1CCc2c(n(CC(O)c3ccc(F)c(F)c3)c3ccc(Cl)cc23)CC1 (single isomer, unassigned) [339a]","Percentage inhibition of ligand binding, Adrenergic α2A","[2]; compound at 0.1 μM, 0.1 µM",37%
same,"Percentage inhibition of ligand binding, Adrenergic α1B",[1]; compound at 0.1 μM,13%
"CN1CCc2c(n(CC(O)c3ccc(F)c(F)c3)c3ccc(Cl)cc23)CC1 (single isomer, unassigned) [339b]","Percentage inhibition of ligand binding, Adrenergic α2A","[2]; compound at 0.1 μM, 0.1 µM",64%
"OCCN1CCc2c(c3cc(Cl)ccc3n2CC(O)c2ccncc2)C1 (single isomer, unassigned) [II-93b]","Percentage inhibition of ligand binding, Adrenergic α2A","[2]; compound at 0.1 μM, 0.1 µM",4%
"CC(O)(Cn1c2c(c3cc(Cl)ccc31)CN(C1CCC1)CC2)c1cccnc1 (single isomer, unassigned) [II-118a]","Percentage inhibition of ligand binding, Adrenergic α2A (0.1 μM)",[2]; [5],3%
"Cc1ccc2c(c1)c1c(n2CC(C)(O)c2cccnc2)C(O)CN(C)C1 (single isomer, unassigned) [II-151a]","Percentage inhibition of ligand binding, Adrenergic α1B (0.1 μM)",[1]; [5],11%
"CC(O)(Cn1c2c(c3cc(Cl)cnc31)C1CCCN1CC2)c1cccnc1 (single isomer, unassigned) [IV-210a]","Percentage inhibition of ligand binding, Adrenergic α1B (0.03 μM)","[1]; compound at 0.03 μM, repeat datapoints each shown",43%
Cc1ccc2c(c1)c1c(n2CC(O)c2ccc(F)cc2)CCN(C)C1 (stereo not drawn) [30a],"Percentage inhibition of ligand binding, Adrenergic α1B (0.1 μM)",[1]; [5],57%
Cc1ccc2c(c1)c1c(n2CC(O)c2ccc(C#N)cc2)CCN(C)C1 (stereo not drawn) [142b],"Percentage inhibition of ligand binding, Adrenergic α2A",[2]; 0.1 μM compound,63%
"C/C(=C\n1c2c(c3cc(C)ccc31)C1CCCN1CC2)c1ccc(C)nc1 (stereo not drawn) [193a, 10-methyl-7-(2-(6-methylpyridin-3-yl)prop-1-enyl)-2,3,5,6,7,11c-hexahydro-1H-indolizino[7,8-b]indole]",inhibition at 0.1 µM,[2]; [6],85%
same,inhibition at 0.1 µM,"[1]; 0.1 μM compound, read-out: Percentage inhibition of ligand binding, Adrenergic α1B",89%
Cc1ccc2c(c1)c1c(n2C(C)C(O)c2ccncc2)CCN(C)C1 (stereo not drawn) [II-98a],"Percentage inhibition of ligand binding, Adrenergic α2A",[2]; compound at 0.1 μM,12%
same,"Percentage inhibition of ligand binding, Adrenergic α1B",[1]; compound at 0.1 μM,33%
Cc1ccc2c(c1)c1c(n2CC(O)c2cn[nH]c2)CCN(C)C1 (stereo not drawn) [II-106a],"Percentage inhibition of ligand binding, Adrenergic α1B",[1]; compound at 0.1 μM,25%
CN1CCc2c(c3cc(Cl)ccc3n2CC(O)c2cccnc2)C1 (stereo not drawn) [compound 7],inhibition at 0.1 µM,[2]; [7],16%
Cc1ccc2c(c1)c1c(n2CC(O)c2ccc(F)cc2)CCN(C)C1 (stereo not drawn) [compound 30],inhibition at 0.1 µM,[2]; [7],63%
same,inhibition at 0.1 µM,[1]; [4],86%
"Cc1cnc2c(c1)c1c(n2CCc2ccc(C)nc2)CCN2CCCC12 (stereo not drawn) [compound 74, 10-methyl-7-(2-(6-methylpyridin-3-yl)ethyl)-2,3,5,6,7,1c-hexahydro-1H-pyrido[3′,2′:4,5]pyrrolo[2,3-g]indolizine]",inhibition at 0.1 µM,[1]; [4],81%
